The test system of data set [1] is KB V1 cells. Nature of the data set: SRB growth inhibition assay, KB V1. The class given is cell-based, human. Particulars: IC50 KB V1 / IC50 KB-3-1.
The target of data set [2] is P-gp (Homo sapiens, UniProt P08183). As to the kind of experiment: Hoechst 33342 efflux assay, HepG2-DR. Format: cell-based. Set-up: KB V1, HepG2-DR and K562-DR cell expressed P-gp at high level when compared with parental drug sensitive cells thereof; endogenous in cells; host or cells: HepG2-DR (doxorubicin-maintained multidrug resistant subline of HepG2). The method, then: Relative amount of intracellular H33342 (%)=100×(FS−F0)/F0
P-gp (Homo sapiens, UniProt P08183), sequence (P08183 whole entry): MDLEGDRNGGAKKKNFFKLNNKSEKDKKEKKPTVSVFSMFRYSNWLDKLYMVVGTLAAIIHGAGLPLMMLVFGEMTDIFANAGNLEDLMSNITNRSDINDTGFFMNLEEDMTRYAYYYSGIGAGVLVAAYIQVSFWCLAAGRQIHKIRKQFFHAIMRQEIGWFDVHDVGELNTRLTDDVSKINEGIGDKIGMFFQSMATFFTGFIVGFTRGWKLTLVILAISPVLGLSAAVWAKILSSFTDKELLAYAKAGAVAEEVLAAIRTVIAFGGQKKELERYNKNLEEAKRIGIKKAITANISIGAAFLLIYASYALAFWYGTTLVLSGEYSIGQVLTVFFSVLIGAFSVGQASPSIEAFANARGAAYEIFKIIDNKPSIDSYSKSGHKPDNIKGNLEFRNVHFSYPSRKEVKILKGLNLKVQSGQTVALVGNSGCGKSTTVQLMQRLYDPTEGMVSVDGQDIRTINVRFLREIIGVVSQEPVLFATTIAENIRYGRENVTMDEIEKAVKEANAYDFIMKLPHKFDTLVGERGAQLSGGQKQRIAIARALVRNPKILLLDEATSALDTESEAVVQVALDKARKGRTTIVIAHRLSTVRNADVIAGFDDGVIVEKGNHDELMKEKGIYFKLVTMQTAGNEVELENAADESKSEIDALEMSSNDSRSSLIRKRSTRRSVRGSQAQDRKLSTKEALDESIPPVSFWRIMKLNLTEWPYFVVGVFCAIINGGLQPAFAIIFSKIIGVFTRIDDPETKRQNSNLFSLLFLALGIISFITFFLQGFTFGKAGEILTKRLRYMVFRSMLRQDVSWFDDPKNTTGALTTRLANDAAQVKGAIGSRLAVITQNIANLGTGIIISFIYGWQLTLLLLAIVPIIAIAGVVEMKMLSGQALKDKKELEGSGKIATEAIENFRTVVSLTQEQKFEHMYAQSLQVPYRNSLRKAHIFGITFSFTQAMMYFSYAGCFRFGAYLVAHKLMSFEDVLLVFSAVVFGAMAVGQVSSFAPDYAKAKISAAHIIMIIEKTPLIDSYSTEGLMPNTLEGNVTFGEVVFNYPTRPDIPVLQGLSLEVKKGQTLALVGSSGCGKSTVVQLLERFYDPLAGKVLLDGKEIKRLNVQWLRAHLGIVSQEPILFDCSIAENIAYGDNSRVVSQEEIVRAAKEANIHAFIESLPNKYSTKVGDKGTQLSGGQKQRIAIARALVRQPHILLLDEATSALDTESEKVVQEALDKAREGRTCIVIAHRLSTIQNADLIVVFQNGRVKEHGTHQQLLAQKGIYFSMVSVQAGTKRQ
(Fs: cellular fluorescence intensity of H33342 in the presence of a testing drug; F0: cellular fluorescence intensity of H33342 in the absence of any P-gp modulator).
1.4 Hoechst 33342 transport test: HepG2-DR Cells (5×10^4 cells in 100 μL, medium per well) were seeded in 96-well plate and incubated overnight to permit cell attachment. The medium was replaced with fresh medium containing 20 μg/mL Hoechst 33342 and cells were incubated at 37° C. for 1 hour. Cells were then washed with 100 μL ice-cold PBS twice. New medium containing the test compound of various concentrations was added and cells were further incubated at 37° C. for 1 hour. Cells were washed with ice-cold PBS twice and cellular fluorescence intensity was measured at λex=365 nm (λem=460 nm) by a BMG FLUOstar OPTIMA Microplate Reader. Inhibitory effect of the test compound on Hoechst 33342 efflux was expressed as the percentage increase of retained Hoechst 33342 in cells.

The test system of data set [3] is P-gp. As to the kind of experiment: Immunoblotting analysis of P-gp expression, HepG2-DR. Format: cell-based, human. Particulars: 4 μM, 72 hours. The method, then:
Immunoblotting analysis of P-gp expression: cells were treated with 4 μM of cis-DMDCK, 4 μM of cis-DMDBK, 4 μM of trans-DMDCK, or 4 μM of trans-DMDBK for 72 hours. Treated cells were collected and mixed well in ice-cold lysis buffer (50 mM Tris pH7.4, 100 mM NaCl, 2 mM EDTA, 1% sodium deoxycholate, 0.1% SDS, 1% triton X-100, 2 mM PMSF, 1% aprotinin) for 30 minutes and then centrifuged to get the total protein. Protein concentration was determined using Bradford assay. In this experiment, 50 μg total protein was separated by 8% SDS-PAGE and electro-transferred to nitrocellulose membranes. The membrane was blocked by 5% skim milk/0.1% Tween-20/TBS (10 mM Tris pH7.5, 100 mM NaCl), and then incubated with anti-P-pg antibody for 1 hour, followed by horseradish-peroxidase-conjugated secondary antibody for another 1 hour. Protein bands were detected by the ECL method.
(In western blotting, separated proteins are transferred to a membrane and probed.)

The test system of data set [4] is HepG2-DR cells. Nature of the data set: Cell cycle distribution by flow cytometry (doxorubicin-induced G2/M arrest), HepG2-DR. Particulars: HepG2-DR; for Cell cycle distribution, G0/G1 / Cell cycle distribution, G2/M / Cell cycle distribution, S / Cell cycle distribution, SubG1: 48 h; for Concentration of test compound that reduced the effective doxorubicin concentration (G2/M arrest) from 50 to 1 μM: combination with doxorubicin. Format: cell-based, human. The method, then:
1.2 Instruments: FACSCAN flow cytometry (Becton Dickinson Immunocytometry Systems, San Jose, Calif.), the obtained data were analyzed using the software of Macintosh CellQuest.
1.3 Cell lines: HepG2, HepG2-DR.
1.4 Drug treatment: HepG2 and HepG2-DR cells were respectively treated with each of cis-DMDCK, cis-DMDBK, trans-DMDCK, trans-DMDBK and doxorubicin for 48 hours, or treated respectively with the combination of doxorubicin and one of cis-DMDCK, cis-DMDBK, trans-DMDCK, trans-DMDBK for 48 hours.
1.5 Treatment and detection of sample cells: after washed twice by ice-cold PBS, the cells were fixed with 70% ethanol at −20° C. overnight. The fixed cells were washed by PBS once and resuspended in 1 mL of PBS containing 100 μg/mL RNAase A and incubated at 37° C. for 30 minutes. Finally, propidium iodide solution (final concentration is 40 μg/mL,) was added to bind with DNA and incubated at room temperature for 5-10 minutes. Cells were analyzed by FACSCAN flow cytometry immediately.
In general terms: In flow cytometry, cells or beads pass a laser one at a time.

Where [5] appears, read: 1 μM doxorubicin + 0.5 μM test compound.
The mark [6] stands for this setting: 1 μM doxorubicin + 1 μM test compound.
Setting [7] is: 1 μM doxorubicin + 2 μM test compound.
[8] abbreviates: 1 μM doxorubicin + 4 μM test compound.

Structures are written as SMILES. Entries after “also recorded” stand apart in the source; their conditions may differ.

As for `COc1ccc(C(=O)O[C@@H]2c3c(ccc4ccc(=O)oc34)OC(C)(C)[C@@H]2OC(=O)c2ccc(OC)c(OC)c2)cc1OC` (racemic) [cis-DMDBK, (±)-3′-O,4′-O-bis(3,4-dimethoxybenzoyl)-cis-khellactone], the Resistant ratio in data set [1] was found to be 0.46. Besides, the “Highest increase of cellular Hoechst 33342 fluorescence” value (“Highest increase” below) in data set [2] (10 μM) was determined as 200%. Further, the “Change in P-gp (MDR1) expression level” value in data set [3] was “no detectable alteration; also recorded: not observed”. Besides, in data set [4] (setting [5]), the “Cell cycle distribution, G0/G1” value worked out at 35.82 ± 2.26%; the “Cell cycle distribution, G2/M” value amounted to 52.79 ± 5.64%; the “Cell cycle distribution, S” value came out at 6.44 ± 0.77%; the “Cell cycle distribution, SubG1” value is reported as 2.92 ± 1.09%. In addition, in data set [4] (setting [6]), the “Cell cycle distribution, G0/G1” value was determined as 13.52 ± 1.36%; the “Cell cycle distribution, G2/M” value is on record as 73.03 ± 1.89%; the “Cell cycle distribution, S” value came to 5.85 ± 3.09%; the “Cell cycle distribution, SubG1” value is given as 4.08 ± 0.81%. Moreover, in data set [4] (setting [7]), the “Cell cycle distribution, G0/G1” value was found to be 3.74 ± 0.76%; the “Cell cycle distribution, G2/M” value is 79.01 ± 6.01%; the “Cell cycle distribution, S” value came out at 6.86 ± 2.57%; the “Cell cycle distribution, SubG1” value worked out at 7.13 ± 6.57%. Also, in data set [4] (4 μM alone), the “Effect on cell cycle by itself” value is “no effect”; the “Cell cycle distribution, G0/G1” value is given as 52.36 ± 0.98%; the “Cell cycle distribution, G2/M” value is 34.36 ± 0.42%; the “Cell cycle distribution, S” value was found to be 7.66 ± 3.22%. Also, the “Cell cycle distribution, SubG1” value in data set [4] (4 μM alone) stood at 2.27 ± 0.49%. Moreover, the “Concentration of test compound that reduced the effective doxorubicin concentration (G2/M arrest) from 50 to 1 μM” value in data set [4] was determined as 2 µM.

On to `COc1ccc(/C=C/C(=O)O[C@@H]2c3c(ccc4ccc(=O)oc34)OC(C)(C)[C@@H]2OC(=O)/C=C/c2ccc(OC)c(OC)c2)cc1OC` (racemic) [cis-DMDCK, (±)-3′-O,4′-O-bis(3,4-dimethoxycinnamoyl)-cis-khellactone], for which, in data set [1], the Resistant ratio is given as 0.52. The “Highest increase” value in data set [2] (5 μM) was found to be 200%. In addition, the “Change in P-gp (MDR1) expression level” value in data set [3] was “no detectable alteration; also recorded: not observed”. Besides, in data set [4] (setting [5]), the “Cell cycle distribution, G0/G1” value was found to be 8.46 ± 1.63%; the “Cell cycle distribution, G2/M” value is on record as 79.79 ± 4.56%; the “Cell cycle distribution, S” value came out at 6.52 ± 1.76%; the “Cell cycle distribution, SubG1” value turned out to be 4.35 ± 0.59%. Further, in data set [4] (setting [6]), the “Cell cycle distribution, G0/G1” value was found to be 4.39 ± 1.50%; the “Cell cycle distribution, G2/M” value stood at 81.42 ± 6.02%; the “Cell cycle distribution, S” value is 5.36 ± 3.13%; the “Cell cycle distribution, SubG1” value stood at 5.59 ± 4.35%. In data set [4] (setting [7]), the “Cell cycle distribution, G0/G1” value was 4.51 ± 0.45%; the “Cell cycle distribution, G2/M” value amounted to 77.12 ± 3.36%; the “Cell cycle distribution, S” value is listed as 8.87 ± 4.04%; the “Cell cycle distribution, SubG1” value turned out to be 6.40 ± 5.54%. In addition, in data set [4] (4 μM alone), the “Effect on cell cycle by itself” value was “no effect”; the “Cell cycle distribution, G0/G1” value was found to be 52.10 ± 0.61%; the “Cell cycle distribution, G2/M” value stood at 33.20 ± 2.05%; the “Cell cycle distribution, S” value came to 8.38 ± 4.24%. The “Cell cycle distribution, SubG1” value in data set [4] (4 μM alone) is listed as 2.25 ± 0.51%. For the same compound, the “Concentration of test compound that reduced the effective doxorubicin concentration (G2/M arrest) from 50 to 1 μM” value in data set [4] stood at 1 µM.

For the compound `COc1ccc(C(=O)O[C@@H]2[C@@H](OC(=O)c3ccc(OC)c(OC)c3)c3c(ccc4ccc(=O)oc34)OC2(C)C)cc1OC` (racemic) [trans-DMDBK, (±)-3′-O,4′-O-bis(3,4-dimethoxybenzoyl)-trans-khellactone], the Resistant ratio in data set [1] was found to be 0.53. In addition, the “Highest increase” value in data set [2] (20 μM) is given as “about 150%”. Moreover, the “Change in P-gp (MDR1) expression level” value in data set [3] is recorded as “no detectable alteration; also recorded: not observed”. In addition, in data set [4] (setting [6]), the “Cell cycle distribution, G0/G1” value turned out to be 34.60 ± 2.58%; the “Cell cycle distribution, G2/M” value is 49.53 ± 0.69%; the “Cell cycle distribution, S” value is 7.61 ± 3.69%; the “Cell cycle distribution, SubG1” value was found to be 3.31 ± 0.89%. For the same compound, in data set [4] (setting [7]), the “Cell cycle distribution, G0/G1” value came to 17.56 ± 2.20%; the “Cell cycle distribution, G2/M” value is 67.89 ± 1.19%; the “Cell cycle distribution, S” value was determined as 7.03 ± 2.34%; the “Cell cycle distribution, SubG1” value came to 5.30 ± 2.52%. Also, in data set [4] (setting [8]), the “Cell cycle distribution, G0/G1” value is listed as 5.37 ± 1.06%; the “Cell cycle distribution, G2/M” value worked out at 81.56 ± 2.62%; the “Cell cycle distribution, S” value was 4.71 ± 3.62%; the “Cell cycle distribution, SubG1” value is given as 5.11 ± 2.84%. In data set [4] (4 μM alone), the “Effect on cell cycle by itself” value was “no effect”; the “Cell cycle distribution, G0/G1” value stood at 49.57 ± 0.15%; the “Cell cycle distribution, G2/M” value amounted to 34.41 ± 3.70%; the “Cell cycle distribution, S” value is 6.17 ± 1.55%. In addition, the “Cell cycle distribution, SubG1” value in data set [4] (4 μM alone) amounted to 1.33 ± 0.24%. Moreover, the “Concentration of test compound that reduced the effective doxorubicin concentration (G2/M arrest) from 50 to 1 μM” value in data set [4] amounted to 4 µM.

Turning to `COc1ccc(/C=C/C(=O)O[C@@H]2[C@@H](OC(=O)/C=C/c3ccc(OC)c(OC)c3)c3c(ccc4ccc(=O)oc34)OC2(C)C)cc1OC` (racemic) [trans-DMDCK, (±)-3′-O,4′-O-bis(3,4-dimethoxycinnamoyl)-trans-khellactone], in data set [1], the Resistant ratio is recorded as 0.47. Besides, the “Highest increase” value in data set [2] (20 μM) is reported as “about 150%”. Besides, the “Change in P-gp (MDR1) expression level” value in data set [3] is recorded as “no detectable alteration; also recorded: not observed”. In data set [4] (setting [6]), the “Cell cycle distribution, G0/G1” value was 34.29 ± 0.21%; the “Cell cycle distribution, G2/M” value is on record as 48.46 ± 2.52%; the “Cell cycle distribution, S” value stood at 8.80 ± 3.64%; the “Cell cycle distribution, SubG1” value came to 3.94 ± 0.77%. In data set [4] (setting [7]), the “Cell cycle distribution, G0/G1” value was 21.21 ± 1.48%; the “Cell cycle distribution, G2/M” value was 64.06 ± 3.56%; the “Cell cycle distribution, S” value amounted to 5.79 ± 4.05%; the “Cell cycle distribution, SubG1” value is listed as 6.55 ± 0.12%. Moreover, in data set [4] (setting [8]), the “Cell cycle distribution, G0/G1” value is 6.03 ± 0.91%; the “Cell cycle distribution, G2/M” value came to 79.52 ± 0.66%; the “Cell cycle distribution, S” value is 5.70 ± 4.20%; the “Cell cycle distribution, SubG1” value came out at 4.29 ± 1.99%. Moreover, in data set [4] (4 μM alone), the “Effect on cell cycle by itself” value is recorded as “no effect”; the “Cell cycle distribution, G0/G1” value was found to be 47.46 ± 0.55%; the “Cell cycle distribution, G2/M” value turned out to be 33.42 ± 1.98%; the “Cell cycle distribution, S” value is recorded as 7.97 ± 1.05%. Further, the “Cell cycle distribution, SubG1” value in data set [4] (4 μM alone) came to 2.07 ± 0.06%. The “Concentration of test compound that reduced the effective doxorubicin concentration (G2/M arrest) from 50 to 1 μM” value in data set [4] worked out at 4 µM.
